Values quoted from earlier work, collected in patent US12324860B2, “Methods of treating central nervous system disorders via administration of nanoparticles of an mTOR inhibitor and an albumin” (Abraxis BioScience, LLC, priority 2018, dated 2025).
Where two headings read alike, the source gives them in different places.

Columns and labels:
[1] = in vivo
[2] = preclinical studies
[3] = retrospective analysis (Lorgis et al. 2012)

Q: For `COc1ccc(COc2cc3oc(=O)c4cc(C(C)O)ccc4c3cc2OC)cc1` (stereo not shown) [Palomid 529], which brain penetration [1] is on record?
A: The brain penetration was “good brain penetration”.

Q: And the “affinity for ABCB1/ABCG2” value (ABCB1/ABCG2)?
A: The value was “lacks affinity”.

Q: For `CO[C@H]1C[C@@H]2CC[C@@H](C)[C@@](O)(O2)C(=O)C(=O)N2CCCC[C@H]2C(=O)O[C@H]([C@H](C)C[C@@H]2CC[C@@H](OCCO)[C@H](OC)C2)CC(=O)[C@H](C)/C=C(\C)[C@@H](O)[C@@H](OC)C(=O)[C@H](C)C[C@H](C)/C=C/C=C/C=C/1C` [everolimus], which brain penetration [2] is on record?
A: The brain penetration was “poor brain penetration”.

Q: With “bevacizumab: recombinant humanized anti-VEGF antibody” as the compound, how does the “PFS and OS with low dose intensity (<5 mg/kg/week) versus normal dose intensity at 10 mg/kg” value [3] read?
A: The value was “improved PFS and OS”.
